Reference: US9572792B2, “Coumarin compounds as receptor modulators with therapeutic utility” (Allergan, Inc., priority 2009, dated 2017)
pEC50: −log10 of the molar value.

Target: human S1P1 receptor (Homo sapiens (Human), UniProt P21453)
Experiment: GTP γ35S binding assay
Assay type: biochemical
Settings: S1P1 receptor from GTP γ35S; membranes of cells stably expressing the S1P1 receptor
Protocol: The S1P1 activity of the compounds according to the invention, were tested using the GTP γ^35S binding assay. The compounds were assessed for their ability to activate or block activation of the human S1P1 receptor in cells stably expressing the S1P1 receptor.
GTP γ^35S binding was measured in the medium containing (mM) HEPES 25, pH 7.4, MgCl2 10, NaCl 100, dithiothreitol 0.5, digitonin 0.003%, 0.2 nM GTP γ^35S, and 5 μg membrane protein in a volume of 150 μl. Test compounds were included in the concentration range from 0.08 to 5,000 nM unless indicated otherwise. Membranes were incubated with 100 μM 5′-adenylylimidodiphosphate for 30 min, and subsequently with 10 μM GDP for 10 min on ice. Drug solutions and membrane were mixed, and then reactions were initiated by adding GTP γ^35S and continued for 30 min at 25° C. Reaction mixtures were filtered over Whatman GF/B filters under vacuum, and washed three times with 3 mL of ice-cold buffer (HEPES 25, pH7.4, MgCl2 10 and NaCl 100). Filters were dried and mixed with scintillant, and counted for ^35S activity using a 8-counter. Agonist-induced GTP γ^35S binding was obtained by subtracting that in the absence of agonist. Binding data were analyzed using a non-linear regression method. In case of antagonist assay, the reaction mixture contained 10 nM S1P in the presence of test antagonist at concentrations ranging from 0.08 to 5000 nM.
S1P1 receptor from GTP γ^35S: nM, (EC50),

human S1P1 receptor, sequence (P21453 whole entry): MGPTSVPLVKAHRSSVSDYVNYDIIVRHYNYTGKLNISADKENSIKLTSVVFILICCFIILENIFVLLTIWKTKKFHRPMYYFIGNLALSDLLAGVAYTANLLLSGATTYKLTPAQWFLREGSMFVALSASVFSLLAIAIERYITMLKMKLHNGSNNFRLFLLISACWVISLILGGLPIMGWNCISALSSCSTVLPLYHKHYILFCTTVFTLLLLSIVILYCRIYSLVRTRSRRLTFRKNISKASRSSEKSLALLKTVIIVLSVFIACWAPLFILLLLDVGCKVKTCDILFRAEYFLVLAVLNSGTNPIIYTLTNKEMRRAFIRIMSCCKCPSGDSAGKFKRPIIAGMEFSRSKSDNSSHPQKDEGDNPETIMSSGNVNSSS

## CCCc1c(OC)ccc2cc(C(=O)Nc3ccncc3Br)c(=O)oc12 [Compound 6, N-(3-bromopyridin-4-yl)-7-methoxy-2-oxo-8-propyl-2H-chromene-3-carboxamide]
  pEC50: 7.72

## CCCc1c(OC)ccc2cc(C(=O)Nc3ccc(S(N)(=O)=O)cc3Br)c(=O)oc12 [Compound 38, N-[4-(aminosulfonyl)-2-bromophenyl]-7-methoxy-2-oxo-8-propyl-2H-chromene-3-carboxamide]
  pEC50: 8.46

## CCCc1c(OC)ccc2cc(C(=O)Nc3ccccc3Br)c(=O)oc12 [Compound 5, N-(2-bromophenyl)-7-methoxy-2-oxo-8-propyl-2H-chromene-3-carboxamide]
  pEC50: 7.58

## CCCc1c(OC)ccc2cc(C(=O)Nc3ccc(NC(=O)[C@H](N)CCC(=O)O)cc3C)c(=O)oc12 [Compound 62, (4R)-4-amino-5-[(4-{[(7-methoxy-2-oxo-8-propyl-2H-chromen-3-yl)carbonyl]amino}-3-methylphenyl)amino]-5-oxopentanoic acid]
  pEC50: 8.51
